Measured values as given in patent US20250221966A1, “RXFP1 AGONISTS” (BRISTOL-MYERS SQUIBB COMPANY, priority 2021, published 2025).

Target: T1, human RXFP1 (Homo sapiens, UniProt Q9HBX9)
T1 construct: expressed in transfected cells
T1 sequence (Q9HBX9 1-757): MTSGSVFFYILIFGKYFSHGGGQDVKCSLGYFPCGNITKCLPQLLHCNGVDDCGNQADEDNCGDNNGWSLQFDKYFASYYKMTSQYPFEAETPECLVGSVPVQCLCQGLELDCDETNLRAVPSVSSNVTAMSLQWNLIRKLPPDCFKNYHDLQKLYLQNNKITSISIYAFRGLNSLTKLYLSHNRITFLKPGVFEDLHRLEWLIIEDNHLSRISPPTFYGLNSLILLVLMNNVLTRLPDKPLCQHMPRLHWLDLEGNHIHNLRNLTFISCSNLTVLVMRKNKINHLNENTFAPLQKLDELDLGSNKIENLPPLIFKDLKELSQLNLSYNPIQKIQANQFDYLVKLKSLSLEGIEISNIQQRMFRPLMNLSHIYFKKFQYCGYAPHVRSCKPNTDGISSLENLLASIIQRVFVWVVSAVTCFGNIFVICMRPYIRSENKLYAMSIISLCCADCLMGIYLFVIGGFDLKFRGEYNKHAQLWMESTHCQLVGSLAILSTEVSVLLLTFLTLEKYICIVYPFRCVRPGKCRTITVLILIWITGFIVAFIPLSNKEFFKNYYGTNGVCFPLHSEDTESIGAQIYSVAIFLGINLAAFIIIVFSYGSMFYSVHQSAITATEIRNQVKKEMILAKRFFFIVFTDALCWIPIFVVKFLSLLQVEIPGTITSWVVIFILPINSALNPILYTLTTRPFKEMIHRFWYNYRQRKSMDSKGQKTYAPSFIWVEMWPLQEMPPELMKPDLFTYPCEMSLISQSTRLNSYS
Experiment: RXFP1 cAMP assay (hRXFP1 HEK293 cAMP assay, HTRF)
Assay type: cell-based
Conditions: HEK293 cells stably expressing human RXFP1, 30 min at room temperature, read-out: cAMP hRXFP1 HEK293 Assay EC50
Method in brief: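 HEK293 cells stably expressing human RXFP1 (1500 cells/well) in HBSS/20 mM HEPES/0.05% BSA/0.5 mM IBMX. Compounds were tested at 0.010 nM–50 μM final (2% DMSO) for 30 min at room temperature. cAMP was measured by HTRF and values derived by 4-parameter logistic fit.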

COc1ccccc1CNC(=O)[C@@H]1[C@H](NC(=O)c2cc(C3=NOC4COCC34)ccc2OC)[C@@H]2CC[C@H]1/C2=C/C1CC1 (some centres unmarked) [compound 681]
EC50: 606 nM

COCC(=O)NC(C(=O)O)c1ccc(F)c(-c2ccc(OC)c(C(=O)N[C@@H]3C4CCC(/C4=C/C(F)(F)F)[C@@H]3C(=O)Nc3ccc(F)c(C(F)(F)F)c3)c2)c1 (some centres unmarked) [compound 243]
EC50: 4 nM

COc1ccc(C2=NOC3COCC23)cc1C(=O)N[C@H]1[C@@H](C(=O)NC2CC3(C2)CC(F)(F)C3)[C@H]2CC[C@@H]1/C2=C\C1CC1 (some centres unmarked) [compound 605]
EC50: 118 nM

COc1ccc(-c2cc(C(N[S+]([O-])C(C)(C)C)C(F)(F)F)ccc2F)cc1C(=O)N[C@H]1[C@@H](C(=O)Nc2ccc(F)c(C(F)(F)F)c2)[C@H]2CC[C@@H]1/C2=C\C1CC1 (stereo partly drawn) [Example 256, (1R,2S,3R,4R,Z)-3-(5′-(1-((tert-butylsulfinyl)amino)-2,2,2-trifluoroethyl)-2′-fluoro-4-methoxy-[1,1′-biphenyl]-3-carboxamido)-7-(cyclopropylmethylene)-N-(4-fluoro-3-(trifluoromethyl)phenyl)bicyclo[2.2.1]heptane-2-carboxamide]
EC50: 14 nM

COc1ccc(C2CCN(CC(C)(C)O)C2)cc1C(=O)N[C@@H]1C2CCC(C2=CC2CC2)[C@@H]1C(=O)Nc1ccc(F)c(C(F)(F)F)c1 (some centres unmarked) [compound 568]
EC50: 59.4 nM

COc1ccc(C2=NOC3COCC23)cc1C(=O)N[C@H]1[C@@H](C(=O)Nc2ccc(F)c(C(F)(F)F)c2)[C@H]2CC[C@@H]1/C2=C\c1cnoc1 (some centres unmarked) [compound 802]
EC50: 3 nM

COc1ccc(C2=NOC3CC(CO)CC23)cc1C(=O)N[C@H]1[C@@H](C(=O)Nc2ccc(F)c(C(F)(F)F)c2)[C@H]2CC[C@@H]1/C2=C\c1cnc(C)s1 (some centres unmarked) [compound 804]
EC50: 4 nM

COc1ccc(-c2cc(C(=O)O)ccc2F)cc1C(=O)N[C@@H]1C2CCC(/C2=C/C(=O)N2CC(F)(F)C2)[C@@H]1C(=O)Nc1ccc(F)c(C(F)(F)F)c1 (some centres unmarked) [compound 324]
EC50: 2240 nM

COc1ccc(C2=NOC3COCC23)cc1C(=O)N[C@H]1[C@@H](C(=O)NCc2ccc(Cl)cc2Cl)[C@H]2CC[C@@H]1/C2=C\C1CC1 (some centres unmarked) [compound 646]
EC50: 240 nM

COc1c(F)cc(C2=NOC3CC(CO)CC23)cc1C(=O)N[C@H]1[C@@H](C(=O)N[C@H](C)C2(C)CC2(F)F)[C@H]2CC[C@@H]1/C2=C\C1CC1 (some centres unmarked) [compound 756]
EC50: 0.4 nM

COc1ccc(-c2cccc3c2CN(C(=O)C(C)(C)O)C3)cc1C(=O)N[C@@H]1C2CCC(/C2=C/C2CC2)[C@@H]1C(=O)Nc1ccc(F)c(C(F)(F)F)c1 (some centres unmarked) [compound 889]
EC50: 8.5 nM

COc1ccc(C2CC(O)C(=O)N2C)cc1C(=O)N[C@@H]1C2CCC(/C2=C/C2CC2)[C@@H]1C(=O)Nc1ccc(F)c(C(F)(F)F)c1 (single isomer, unassigned) [Example 414]
EC50: 364 nM

COc1ccc(-c2cc(C(=O)O)ccc2F)cc1C(=O)N[C@@H]1C2CCC(/C2=C/C2CC2)[C@@H]1C(=O)NC1Cc2ccccc2C1 (some centres unmarked) [compound 308]
EC50: 2390 nM

COc1ccc(C2=NOC(CNC(=O)OC(C)(C)C)C2)cc1C(=O)N[C@@H]1C2CCC(/C2=C/C(F)(F)F)[C@@H]1C(=O)Nc1ccc(F)c(C(F)(F)F)c1 (some centres unmarked) [compound 403]
EC50: 1390 nM

COc1ccc(-c2cc(C3=NOC(C(=O)O)C3)ccc2F)cc1C(=O)N[C@H]1[C@@H](C(=O)Nc2ccc(F)c(C(F)(F)F)c2)[C@H]2CC[C@@H]1/C2=C\C1CC1 (some centres unmarked) [compound 948]
EC50: 8.6 nM

COc1ccc(-c2cc(C(=O)O)ccc2F)cc1C(=O)N[C@@H]1C2CCC(/C2=C/C(=O)N(C)C)[C@@H]1C(=O)Nc1ccc(F)c(C(F)(F)F)c1 (some centres unmarked) [Example 323]
EC50: 854 nM

COc1ccc(-c2ccc3c(C(=O)OCc4ccccc4)cnn3c2)cc1C(=O)N[C@@H]1C2CCC(/C2=C/C(F)(F)F)[C@@H]1C(=O)Nc1ccc(F)c(C(F)(F)F)c1 (some centres unmarked) [compound 316]
EC50: 81 nM

COc1ccc(-c2cccc3c2CC(=O)N3)cc1C(=O)N[C@H]1[C@@H](C(=O)Nc2ccc(F)c(C(F)(F)F)c2)[C@H]2CC[C@@H]1/C2=C\C1CC1 [compound 890]
EC50: 2.4 nM

COc1ccc(N2CCC(NC(=O)C3CCOCC3)C2)cc1C(=O)N[C@@H]1C2CCC(/C2=C/C(F)(F)F)[C@@H]1C(=O)Nc1ccc(F)c(C(F)(F)F)c1 (single isomer, unassigned) [compound 336]
EC50: 1930 nM

COc1ccccc1/C=C1\C2CCC1[C@H](C(=O)Nc1ccc(F)c(C(F)(F)F)c1)[C@@H]2NC(=O)c1cc(F)c(F)cc1OC (some centres unmarked) [compound 23]
EC50: 1400 nM

O=C(N[C@H]1C(C(=O)Nc2ccc(F)c(C(F)(F)F)c2)[C@H]2CC[C@@H]1/C2=C\C1CC1)c1cc(C2=NOC3COCC23)ccc1OCC(F)F (some centres unmarked) [compound 785]
EC50: 4 nM

COc1cc(F)c(F)cc1C(=O)N[C@@H]1C2CCC(/C2=C/C=C/CCCc2ccccc2)[C@@H]1C(=O)Nc1ccc(F)c(C(F)(F)F)c1 (some centres unmarked) [compound 37]
EC50: 15 nM

COc1ccc(-c2cc(C(OC(=O)NC(C)(C)C)C(=O)O)ccc2F)cc1C(=O)N[C@H]1[C@@H](C(=O)Nc2ccc(F)c(C(F)(F)F)c2)[C@H]2CC[C@@H]1/C2=C\C1CCCC1 (some centres unmarked) [compound 933]
EC50: 0.9 nM

COc1ccc(-c2cc(-c3nnn[nH]3)ccc2F)cc1C(=O)N[C@@H]1C2CCC(C2=C(C)C)[C@@H]1C(=O)Nc1ccc(F)c(C(F)(F)F)c1 (some centres unmarked) [Example 108]
EC50: 330 nM

COCCOc1ccc(C2=NOC3COCC23)cc1C(=O)N[C@H]1[C@@H](C(=O)Nc2ccc(F)c(C(F)(F)F)c2)[C@H]2CC[C@@H]1/C2=C\C1CC1 (single isomer, unassigned) [compound 644]
EC50: 238 nM

COc1ccc(C2=NO[C@@H]3CC[C@H](O)[C@H]23)cc1C(=O)N[C@H]1[C@@H](C(=O)Nc2ccc(F)c(C(F)(F)F)c2)[C@H]2CC[C@@H]1/C2=C\C1CC1 (single isomer, unassigned) [compound 484]
EC50: 7.4 nM

COc1ccc(C2=NO[C@H]3COC[C@@H]23)cc1C(=O)N[C@H]1[C@@H](C(=O)Nc2ccc(F)c(C(F)(F)F)c2)[C@H]2CC[C@@H]1/C2=C\CCC1CC1 [compound 839]
EC50: 4.4 nM

COc1ccc(C2=NOC3CC(C(C)O)CC23)cc1C(=O)N[C@H]1[C@@H](C(=O)Nc2ccc(F)c(C(F)(F)F)c2)[C@H]2CC[C@@H]1/C2=C\C1CC1 (some centres unmarked) [compound 855]
EC50: 4.5 nM

COc1ccc(C2CC3COCC32)cc1C(=O)N[C@H]1[C@@H](C(=O)Nc2ccc(F)c(C(F)(F)F)c2)[C@H]2CC[C@@H]1/C2=C\C1CC1 (stereo partly drawn) [Example 725, (1R,2S,3R,4R,Z)-3-(5-(3-oxabicyclo[3.2.0]heptan-6-yl)-2-methoxybenzamido)-7-(cyclopropylmethylene)-N-(4-fluoro-3-(trifluoromethyl)phenyl)bicyclo[2.2.1]heptane-2-carboxamide]
EC50: 360 nM

COc1ccc(C2=NOC3CC(CO)CC23)cc1C(=O)N[C@H]1[C@@H](C(=O)Nc2ccc(F)c(C(F)(F)F)c2)[C@H]2CC[C@@H]1/C2=C\c1ccncn1 (some centres unmarked) [compound 809]
EC50: 4.6 nM

COc1ccc(C2=NOC3COCC23)cc1C(=O)N[C@H]1[C@@H](C(=O)NCC2(C)COC2)[C@H]2CC[C@@H]1/C2=C\C1CC1 (some centres unmarked) [compound 675]
EC50: 485 nM

COc1ccc(C2=NO[C@@H]3C[C@@H](CO)CN23)cc1C(=O)N[C@H]1[C@@H](C(=O)Nc2ccc(F)c(C(F)(F)F)c2)[C@H]2CC[C@@H]1/C2=C\C1CC1 [compound 849]
EC50: 2.7 nM

COc1ccc(C2=NOC3CC(C(C)O)CC23)cc1C(=O)N[C@H]1[C@@H](C(=O)Nc2ccc(F)c(C(F)(F)F)c2)[C@H]2CC[C@@H]1/C2=C\C1CC1 (some centres unmarked) [compound 843]
EC50: 0.9 nM

COc1ccc(C2=NOC3COCC23)cc1C(=O)N[C@H]1[C@@H](C(=O)NCc2c(Cl)cccc2Cl)[C@H]2CC[C@@H]1/C2=C\C1CC1 (some centres unmarked) [compound 570]
EC50: 62.7 nM

COc1ccc([C@H]2CO[C@@H]3[C@H]2OC[C@@H]3O)cc1C(=O)N[C@H]1[C@@H](C(=O)Nc2ccc(F)c(C(F)(F)F)c2)[C@H]2CC[C@@H]1/C2=C\C1CC1 [compound 560]
EC50: 45.3 nM

COc1ccc(C2=NOC3CN(CCO)CC23)cc1C(=O)N[C@H]1[C@@H](C(=O)Nc2ccc(F)c(C(F)(F)F)c2)[C@H]2CC[C@@H]1/C2=C\C1CC1 (single isomer, unassigned) [compound 455]
EC50: 2 nM

O=C(N[C@H]1[C@@H](C(=O)Nc2ccc(F)c(C(F)(F)F)c2)[C@H]2CC[C@@H]1/C2=C\C1CC1)c1cccc(C2=NOC3COCC23)c1 (single isomer, unassigned) [compound 647]
EC50: 241 nM

COc1ccc(C2=NOC(C(=O)O)(C(C)(C)C)C2)cc1C(=O)N[C@H]1[C@@H](C(=O)Nc2ccc(F)c(C(F)(F)F)c2)[C@H]2CC[C@@H]1/C2=C\C(F)(F)F (stereo partly drawn) [Example 397, 5-(tert-butyl)-3-(3-(((1R,2R,3S,4R,Z)-3-((4-fluoro-3-(trifluoromethyl)phenyl)carbamoyl)-7-(2,2,2-trifluoroethylidene)bicyclo[2.2.1]heptan-2-yl)carbamoyl)-4-methoxyphenyl)-4,5-dihydroisoxazole-5-carboxylic acid]
EC50: 912 nM
